Results taken from article PMC3714356 (The Journal of investigative dermatology, 2013).
Read-outs that look alike come from different tables or passages of the source.

Legend:
AhR [1] = molecular target: T1, AhR (Homo sapiens, UniProt P35869); experiment: cell-based
T1 sequence (P35869 11-848): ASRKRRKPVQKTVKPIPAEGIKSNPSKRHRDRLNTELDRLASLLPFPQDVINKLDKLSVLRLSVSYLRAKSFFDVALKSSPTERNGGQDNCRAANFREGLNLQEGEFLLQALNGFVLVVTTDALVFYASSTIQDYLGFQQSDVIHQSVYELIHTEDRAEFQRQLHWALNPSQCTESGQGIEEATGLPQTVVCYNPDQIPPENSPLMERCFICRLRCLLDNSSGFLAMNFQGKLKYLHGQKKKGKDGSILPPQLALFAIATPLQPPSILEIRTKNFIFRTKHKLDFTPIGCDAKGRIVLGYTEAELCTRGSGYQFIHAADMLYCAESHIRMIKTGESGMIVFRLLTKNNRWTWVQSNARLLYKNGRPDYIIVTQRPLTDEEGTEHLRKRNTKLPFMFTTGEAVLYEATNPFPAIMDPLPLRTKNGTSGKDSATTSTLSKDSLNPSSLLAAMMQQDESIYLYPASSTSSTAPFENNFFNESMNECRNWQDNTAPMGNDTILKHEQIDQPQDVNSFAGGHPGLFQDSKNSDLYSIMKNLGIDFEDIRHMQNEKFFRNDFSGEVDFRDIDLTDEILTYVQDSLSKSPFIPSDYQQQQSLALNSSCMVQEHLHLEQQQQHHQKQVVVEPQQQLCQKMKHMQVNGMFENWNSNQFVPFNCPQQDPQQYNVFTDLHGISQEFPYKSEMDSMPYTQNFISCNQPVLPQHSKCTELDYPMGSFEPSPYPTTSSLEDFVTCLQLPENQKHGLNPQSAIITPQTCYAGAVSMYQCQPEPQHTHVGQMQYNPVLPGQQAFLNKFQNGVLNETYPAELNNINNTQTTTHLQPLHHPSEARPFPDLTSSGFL

AhR [2] = molecular target: T1, AhR
Cyp1a1 [3] = conditions: human
Cyp1a1 [4] = experiment: HaCaT cells, CYP1A1 mRNA by Reverse Transcriptase Real-Time PCR; conditions: for induction of CYP1A1 mRNA: 100 nM; for Cyp1a1 induction, time dependence: 24h compared to 3 and 6h
Cyp1b1 = experiment: HaCaT cells, CYP1B1 mRNA by Reverse Transcriptase Real-Time PCR; format: cell-based, human; conditions: 1 μM, 24h
[5] = 6 hours of incubation, HG2L7.5c1 cells

Row | Compound | EC50 (AhR [1]) [nM] | induction of CYP1A1 mRNA (Cyp1a1 [4]; 24h) | Cyp1a1 induction, time dependence (Cyp1a1 [4]) | other results
1 | Clc1cc2c(cc1Cl)Oc1cc(Cl)c(Cl)cc1O2 [TCDD, 2,3,7,8-tetrachlorodibenzo-p-dioxin, reference compound] | 0.523 |  |  | 
2 | O=Cc1c(Cc2c[nH]c3ccccc23)[nH]c2ccccc12 [malassezin] |  |  |  | fold less potent than TCDD (AhR [2]; [5]): 20 fold
3 | O=C1Nc2ccccc2/C1=C1/Nc2ccccc2C1=O [indirubin] |  |  |  | Cyp1a1 induction, time dependence (Cyp1a1 [3]): higher at 24h
4 | O=C1c2ccccc2-n2c1nc1ccccc1c2=O [tryptanthrin] | 107 |  |  | fold less potent than TCDD (AhR [2]): 200 fold
5 | O=Cc1c2[nH]c3ccccc3c2cc2[nH]c3ccccc3c12 [FICZ, 6-formylindolo[3,2-b]carbazole] |  | Statistically significant induction | higher at 24h | Cyp1a1 induction compared with ICZ or indirubin (Cyp1a1 [4]; 1 μM, 24h): significantly more potent; Cyp1b1 induction compared with ICZ or indirubin (Cyp1b1): significantly more potent
6 | indolo[3,2-b]carbazole [ICZ] |  | Statistically significant induction | higher at 24h | potency relative to the prototypical AhR agonist TCDD (AhR [2]; [5]): equipotent
